Data published in PMC4912077 (PLoS ONE, 2016).
Entries after “also recorded” stand apart in the source; their conditions may differ. Where two headings read alike, the source gives them in different places.

Legend:
[1] = target: T1, Sigma 2 (Rattus norvegicus, UniProt Q5U3Y7); experiment: NIMH PDSP radioligand binding, Sigma 2
T1 sequence (Q5U3Y7 1-176): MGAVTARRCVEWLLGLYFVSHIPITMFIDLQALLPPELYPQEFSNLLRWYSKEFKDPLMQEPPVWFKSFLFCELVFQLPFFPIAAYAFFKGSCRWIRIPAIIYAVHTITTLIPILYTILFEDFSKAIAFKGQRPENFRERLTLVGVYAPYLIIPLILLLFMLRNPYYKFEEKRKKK
Description: (§1) Radioligands and concentrations used for additional 45 CNS receptor binding assays are listed as supporting information (S1 Table). This work was performed by the National Institute of Mental Health Psychoactive Drug Screening Program (NIMH PDSP) as described previously.[26] Briefly target compounds were dissolved in DMSO and subjected to a primary screen at 10,000 nM concentration. […] Additional experimental details are available in the NIMH PDSP assay protocol book.

[2] = target: PCP site within the NMDAR channel; experiment: NMDAR binding, [3H]-MK-801 displacement in rat forebrain homogenate; details: for Ki: read-out: Ki ± SEM, [3H]-(+)-MK-801, rat forebrain, Cheng-Prusoff;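 on all read-outs here: IC50 by nonlinear regression of percent specific binding versus log concentration, Ki from IC50 via Cheng-Prusoff, raw counts in CPM, duplicates repeated at least three times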
Description: (§2) The reaction was terminated by vacuum filtration using a 24 well cell harvester (Brandel, Gaithersburg, MD) over presoaked GF/B glass fiber filters (Brandel, Gaithersburg, MD). Filters were washed with room temperature assay buffer (3 x 5 mL). […] IC50 values were determined in Graphpad Prism 5.0 using non-linear regression with log-concentration plotted against percent specific binding. […] Ki values were calculated using the equation of Cheng and Prusoff [24]. […] Protein concentration was determined via the Bradford method using Coomassie protein assay reagent (Sigma, USA) [25] with rat albumin (Sigma, USA) as standard. Experiments were performed in duplicate and repeated a minimum of three times.

[3] = target: T2, Alpha2C (Homo sapiens, UniProt P18825); experiment: NIMH PDSP radioligand binding, Alpha2C
T2 sequence (P18825 1-462): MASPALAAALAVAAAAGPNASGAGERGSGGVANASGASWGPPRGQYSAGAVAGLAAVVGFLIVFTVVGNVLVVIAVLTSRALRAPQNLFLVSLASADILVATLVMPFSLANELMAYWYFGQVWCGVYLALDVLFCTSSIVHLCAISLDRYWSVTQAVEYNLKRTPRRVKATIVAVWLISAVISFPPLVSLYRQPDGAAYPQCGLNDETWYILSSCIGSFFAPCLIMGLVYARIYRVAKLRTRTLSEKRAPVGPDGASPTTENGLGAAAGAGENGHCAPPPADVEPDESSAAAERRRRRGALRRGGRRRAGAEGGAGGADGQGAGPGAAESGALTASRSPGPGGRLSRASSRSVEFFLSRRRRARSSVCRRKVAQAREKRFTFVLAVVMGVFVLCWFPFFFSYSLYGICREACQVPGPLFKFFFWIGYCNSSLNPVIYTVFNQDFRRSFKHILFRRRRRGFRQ
Description: as §1

[4] = target: M5 (Homo sapiens, UniProt P08912); experiment: NIMH PDSP radioligand binding, M5
[5] = system: Sprague–Dawley rats; experiment: Pre-pulse inhibition (PPI) of acoustic startle in rats; format: in vivo, rat; details: for ED50: sc, rat, subcutaneous, read-out: ED50 for reduction of average PPI
Description: Male Sprague–Dawley rats from Harlan Industries (Indianapolis, IN, USA; initial weight 250–275 g) were housed in pairs under a 12-h reverse light/dark cycle (lights off at 0700 h). Use of a reversed light/dark cycle allows behavioral testing to be conducted during the awake phase of the light/dark cycle. Food and water were available ad libitum. Animals were acclimatized for approximately 1 wk after arrival prior to behavioral testing and maintained in Association for Assessment and Accreditation of Laboratory Animal Care (AAALAC)-approved facilities that meet all federal and state guidelines. Procedures were approved by the University of California San Diego institutional animal care and use committee. Principles of laboratory animal care were followed.
DPH hydrochloride and 2-MXP hydrochloride were dissolved in water containing 5% Tween-80 and administered subcutaneously, 10-min prior to the start of the startle test session. The injection volume was 1 ml/kg.
Eight startle chambers (SR-LAB system, San Diego Instruments, San Diego, CA, USA) were used to measure startle reactivity in rats. The startle test chambers were sound-attenuated, lighted, and ventilated enclosures containing a clear nonrestrictive cylindrical Plexiglas stabilimeter, 8.2 cm in diameter. A high-frequency loudspeaker mounted 24 cm above the Plexiglas cylinder produced all acoustic stimuli. The peak and average amplitudes of the startle response were detected by a piezoelectric accelerometer. At the onset of the startling stimulus, 100 1-ms readings were recorded, and the average amplitude was used to determine the magnitude of the startle response (measured in arbitrary units).
Acoustic startle test sessions consisted of startle trials (pulse-alone) and prepulse trials (prepulse + pulse). The pulse-alone trial consisted of a 40-ms 120-dB pulse of broadband white noise. Prepulse + pulse trials consisted of a 20-ms acoustic prepulse, an 80-ms delay, and then a 40-ms 120-dB startle pulse (100-ms onset–onset). There was an average of 15 s (range = 6–22 s) between trials. During each inter-trial interval, the movements of the animals were recorded once to measure response when no stimulus was present (data not shown). Each startle session began with a 5 min acclimation period to a 65-dB broadband noise that was present continuously throughout the session. One week after arrival, animals were tested in a brief baseline startle/PPI session to create treatment groups matched for levels of startle and PPI. The startle test session contained 12 pulse-alone trials and 36 prepulse + pulse trials (12 prepulses each of 68-, 71-, and 77-dB [equivalent to 3-, 6-, and 12-dB above background]) presented in a pseudo-randomized order. Six pulse-alone trials were presented at the beginning and the end of the test session but were not used in the calculation of PPI values. Raw data for all PPI experiments are provided as supporting information (S5 File).
The amount of PPI was calculated as a percentage score for each prepulse + pulse trial type: %PPI = 100−{[(startle response for prepulse + pulse trial)/(startle response for pulse-alone trial)] × 100}. Startle magnitude was calculated as the average response to all of the pulse-alone trials. PPI data were analyzed with two-factor analysis of variance (ANOVA) with treatment as the between-subjects factor and trial type (prepulse intensity) as a repeated measure. For experiments in which there was no significant interaction between drug and prepulse intensity, PPI data were collapsed across prepulse intensity and average PPI was used as the main dependent measure. ED50 values were calculated using nonlinear regression. Startle magnitude data were analyzed with one-factor ANOVA. Post-hoc analyses were performed using Tukey’s studentized range method. The alpha level was set at 0.05.

[6] = system: PCP site within the NMDAR channel;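 further: IC50 by nonlinear regression of percent specific binding versus log concentration, Ki from IC50 via Cheng-Prusoff, raw counts in CPM, duplicates repeated at least three times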
Description: as §2

M5, sequence (P08912 whole entry): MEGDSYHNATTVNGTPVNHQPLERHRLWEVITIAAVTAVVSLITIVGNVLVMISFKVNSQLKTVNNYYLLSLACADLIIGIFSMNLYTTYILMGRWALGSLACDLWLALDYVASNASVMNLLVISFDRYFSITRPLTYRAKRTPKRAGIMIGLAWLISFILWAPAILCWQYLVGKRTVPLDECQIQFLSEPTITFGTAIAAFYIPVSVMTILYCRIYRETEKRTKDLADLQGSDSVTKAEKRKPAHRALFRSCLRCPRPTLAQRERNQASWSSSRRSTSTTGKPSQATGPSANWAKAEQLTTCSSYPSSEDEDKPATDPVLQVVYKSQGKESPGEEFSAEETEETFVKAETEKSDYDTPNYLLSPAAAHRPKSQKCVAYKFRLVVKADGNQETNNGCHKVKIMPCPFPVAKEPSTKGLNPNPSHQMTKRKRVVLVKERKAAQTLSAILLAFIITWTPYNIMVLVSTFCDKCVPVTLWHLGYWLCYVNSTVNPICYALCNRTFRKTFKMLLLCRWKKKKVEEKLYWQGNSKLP

In the case of `COc1ccccc1C(Cc1ccccc1)N1CCCCC1` (centres unmarked) [2-MXP, 2-methoxydiphenidine], the Ki [1] is reported as 508 nM, the Ki [2] is reported as 36 ± 3.7 nM and the Ki [3] is reported as 1940 nM. For the same compound, the Ki [4] was 1530 nM, the “effect on PPI” value ([5]; 20 mg/kg s.c.) was “did disrupt PPI; also recorded: significant inhibition of PPI” and the “effect on PPI” value ([5]; doses up to 10 mg/kg s.c.) was “did not alter PPI”. For the same compound, the IC50 [6] was 56.5 ± 5.8 nM.
With `c1ccc(CC(c2ccccc2)N2CCCCC2)cc1` (centres unmarked) [DPH, diphenidine] the Ki [1] was 193 nM, the “NMDAR affinity relative to ketamine” value ([2]; higher affinity) was ~ 18 fold and the Ki [2] was 18.2 ± 2.2 nM. For the same compound, the Ki [3] was 3050 nM, the Ki [4] was 1650 nM and the “effect on average PPI” value ([5]; 10 mg/kg s.c., first dose-response experiment) was “significantly reduced average PPI”. For the same compound, the “effect on PPI” value ([5]; 10, 20 and 30 mg/kg s.c., second experiment) was “reduced PPI at all three prepulse intensities”, the ED50 ([5]; 10 min before test) was 9.5 mg/kg and the ED50 ([5]; 95% CI in parentheses) was 31.5 µmol/kg. The IC50 [6] was 28.6 ± 3.5 nM.
